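96-well plates; 48 h exposure; 5 concentrations. Endpoints by linear interpolation between flanking doses. Not reached: highest tested concentration assigned. GI50 = concentration required for 50% inhibition of growth.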 The source made the active and inactive calls. Cut-off read from the data, not from the text of the source: active = GI50 up to about 1.1 µM and inactive = higher.

Among the test systems are Malme-3M; OVCAR-4; SK-MEL-2; HCT-15; IGROV-1; KM12; U-251; HL-60; SK-MEL-5; HOP-92; TK-10; EKVX; A549; 786-0; RXF 393; NCI-H460; OVCAR-5; HOP-62; MDA-MB-435.
Holding throughout (assay): DTP human tumour cell line panel, 48 h

As a reminder, the GI50 is the concentration that inhibits growth by half. With `C/C(=C\CC/C=C(\C)CC/C=C(\C)CCC1SC1(C)C)CC/C=C(\C)CCC1OC1(C)C` (centres undefined), the GI50 with Malme-3M was > 100 µM (inactive); in the assay on OVCAR-4 it was > 100 µM (inactive); in the assay on SK-MEL-2 it was > 100 µM (inactive); in the assay with HCT-15 it was greater than 100 µM; in the assay on IGROV-1 it was > 100 µM (inactive); with KM12 it was > 100 µM (inactive). For the same molecule, the GI50 in the assay on U-251, in the assay on HL-60, with SK-MEL-5, in the assay with HOP-92, in the assay on TK-10 and in the assay with EKVX was > 100 µM (inactive) each time. Moreover, the GI50 in the assay with A549 was > 100 µM (inactive); in the assay with 786-0, > 100 µM (inactive); in the assay with RXF 393 it was 89.7 µM (inactive); with NCI-H460, > 100 µM (inactive).

Consider `CN(C)C(=O)NC(=S)N(C)C`, for which the GI50 in the assay with Malme-3M is > 100 µM (inactive); in the assay on OVCAR-4, > 100 µM (inactive); in the assay with SK-MEL-2, > 100 µM (inactive); in the assay on HCT-15, 17.1 µM; with IGROV-1 it was > 100 µM (inactive); in the assay with KM12, > 100 µM (inactive). For the same molecule, the GI50 with U-251 is 0.206 µM (active); in the assay on OVCAR-5 it was > 100 µM (inactive); in the assay on HL-60, > 100 µM (inactive); with HOP-62, 0.294 µM (active); in the assay with SK-MEL-5 it was > 100 µM (inactive); in the assay with HOP-92, > 100 µM (inactive). Further, the GI50 in the assay on TK-10, in the assay on EKVX, with A549, in the assay with 786-0, in the assay with RXF 393 and with NCI-H460 was > 100 µM (inactive) throughout.

Turning to `COC(=O)c1nc(-c2ccc(Cl)c(Cl)c2)nc2ccc(Cl)cc12`, the GI50 in the assay on Malme-3M was > 100 µM (inactive); in the assay on SK-MEL-2 it was > 100 µM (inactive); with IGROV-1, 94.4 µM (inactive); in the assay with KM12 it was > 100 µM (inactive); in the assay with U-251 it was 43.7 µM (inactive); in the assay on OVCAR-5, 27.4 µM (inactive). For the same molecule, the GI50 in the assay with HL-60 was > 100 µM (inactive); in the assay on SK-MEL-5, > 100 µM (inactive); in the assay with HOP-92 it was 10.8 µM (inactive); with TK-10, 44 µM (inactive); with EKVX, 59.7 µM (inactive); in the assay on A549, 97.7 µM (inactive). Further, the GI50 in the assay with 786-0 was 27.5 µM (inactive); with RXF 393, 22.8 µM (inactive); in the assay on NCI-H460, > 100 µM (inactive).

With `Cc1nccc2c1cnc1ccnn12`, the GI50 was > 100 µM (inactive) in the assay with Malme-3M; > 100 µM (inactive) with OVCAR-4; > 100 µM (inactive) in the assay on SK-MEL-2; greater than 100 µM in the assay with HCT-15; > 100 µM (inactive) with IGROV-1; > 100 µM (inactive) with KM12. Moreover, the GI50 with U-251, with OVCAR-5, in the assay on HL-60, with HOP-62, with SK-MEL-5 and in the assay on HOP-92 was > 100 µM (inactive) each time. Also, the GI50 was > 100 µM (inactive) in the assay with TK-10; 67.1 µM (inactive) in the assay on EKVX; > 100 µM (inactive) in the assay with A549; > 100 µM (inactive) in the assay with 786-0; > 100 µM (inactive) in the assay on RXF 393; > 100 µM (inactive) in the assay on NCI-H460.

`Cc1cn(C2CC(OC3CCCCO3)C(CO)O2)c(=O)[nH]c1=O` (centres undefined): the GI50 with Malme-3M was > 100 µM (inactive); with OVCAR-4, > 100 µM (inactive); in the assay with SK-MEL-2, > 100 µM (inactive); in the assay with HCT-15, greater than 100 µM; in the assay on IGROV-1 it was > 100 µM (inactive); with KM12 it was > 100 µM (inactive). The GI50 with U-251, with OVCAR-5, with HL-60, with HOP-62, with HOP-92 and in the assay on TK-10 was > 100 µM (inactive) in each case. The GI50 in the assay on EKVX, in the assay with A549, with 786-0, in the assay on RXF 393 and in the assay with NCI-H460 was > 100 µM (inactive) throughout.

In the case of `CCCC(=O)OCC(O)CO` (centres undefined), the GI50 in the assay on Malme-3M is 3610 µM (inactive); with OVCAR-4 it was > 5000 µM (inactive); in the assay on SK-MEL-2, 3780 µM (inactive); in the assay on HCT-15, greater than 5000 µM; with IGROV-1 it was > 5000 µM (inactive); in the assay with KM12 it was > 5000 µM (inactive). Besides, the GI50 in the assay with U-251 is > 5000 µM (inactive); with OVCAR-5, 2810 µM (inactive); in the assay with HL-60 it was 2920 µM (inactive); with HOP-62, > 5000 µM (inactive); in the assay on SK-MEL-5, 4970 µM (inactive); in the assay with HOP-92, 3080 µM (inactive). Moreover, the GI50 with TK-10 is 1570 µM (inactive); in the assay on A549 it was > 5000 µM (inactive); in the assay with 786-0 it was > 5000 µM (inactive); in the assay with RXF 393 it was 3090 µM (inactive); with NCI-H460, 4570 µM (inactive).

With `NC(c1ccccc1)(C(F)(F)F)P1(=O)OC(=O)c2ccccc2O1` (centres undefined), the GI50 was > 100 µM (inactive) in the assay on OVCAR-4; > 100 µM (inactive) in the assay on SK-MEL-2; greater than 100 µM in the assay on HCT-15; > 100 µM (inactive) in the assay with MDA-MB-435; > 100 µM (inactive) in the assay with IGROV-1; > 100 µM (inactive) with KM12. In addition, the GI50 in the assay on U-251 was > 100 µM (inactive); in the assay on OVCAR-5 it was > 100 µM (inactive); with HOP-62, > 100 µM (inactive); in the assay on SK-MEL-5, 8.07 µM (inactive); with HOP-92 it was 20.9 µM (inactive); with TK-10, > 100 µM (inactive). The GI50 with EKVX, in the assay on A549, in the assay on 786-0, with RXF 393 and in the assay with NCI-H460 was > 100 µM (inactive) in each case.

For the molecule `Cc1cc(C)nc(NS(=O)(=O)c2ccc(NC(=O)c3cccc4c(Nc5ccc(S(=O)(=O)N=C(N)N)cc5)c5ccccc5nc34)cc2)n1`, the GI50 with Malme-3M is > 100 µM (inactive); in the assay with OVCAR-4, 14.5 µM (inactive); in the assay with SK-MEL-2, 52.8 µM (inactive); in the assay on HCT-15, 30.1 µM; in the assay on IGROV-1, 40.4 µM (inactive); in the assay on KM12, 6.17 µM (inactive). Besides, the GI50 was 33.9 µM (inactive) in the assay on U-251; > 100 µM (inactive) in the assay on OVCAR-5; 5.56 µM (inactive) in the assay on HL-60; 37.8 µM (inactive) in the assay on HOP-62; 54.8 µM (inactive) in the assay with SK-MEL-5; 19.9 µM (inactive) with HOP-92. The GI50 was 34.8 µM (inactive) with TK-10; 35 µM (inactive) in the assay on EKVX; 62.5 µM (inactive) in the assay with A549; 30.3 µM (inactive) with 786-0; 15.6 µM (inactive) with RXF 393; 83.6 µM (inactive) in the assay on NCI-H460.

As to `CCOc1ccc(C2=NN(CC)C(=O)C(C3C(=O)N(c4ccccc4)N=C3C)C2)cc1` (centres undefined), the GI50 is > 100 µM (inactive) with Malme-3M; > 100 µM (inactive) with OVCAR-4; > 100 µM (inactive) in the assay on SK-MEL-2; greater than 100 µM with HCT-15; > 100 µM (inactive) in the assay with IGROV-1; > 100 µM (inactive) with KM12. Besides, the GI50 with U-251, with OVCAR-5, in the assay on HL-60, with HOP-62, with SK-MEL-5 and in the assay with HOP-92 was > 100 µM (inactive) in each case. In addition, the GI50 with TK-10, in the assay on EKVX, with A549, with 786-0, in the assay with RXF 393 and in the assay with NCI-H460 was > 100 µM (inactive) in each case.

As for `CCCCN(CCCC)CC(O)c1cc(-c2ccc(Cl)c(Cl)c2)nc2c(Cl)cc(Cl)cc12` (centres undefined), the GI50 is > 100 µM (inactive) with Malme-3M; > 100 µM (inactive) in the assay on OVCAR-4; > 100 µM (inactive) in the assay with SK-MEL-2; 45.1 µM in the assay on HCT-15; > 100 µM (inactive) with MDA-MB-435; > 100 µM (inactive) in the assay with IGROV-1. The GI50 in the assay with U-251 is > 100 µM (inactive); in the assay on OVCAR-5 it was > 100 µM (inactive); in the assay with HL-60, 88.3 µM (inactive); with HOP-62, 66.5 µM (inactive); in the assay on TK-10 it was > 100 µM (inactive); in the assay on EKVX, 49.1 µM (inactive). Moreover, the GI50 in the assay with 786-0 and in the assay with NCI-H460 was > 100 µM (inactive) in each case.

On to `CCc1cccc(C)c1N1C(=O)C(=O)C(c2nc3ccccc3o2)/C(=N/NC(=S)NN)C1=O` (centres undefined), for which the GI50 in the assay on Malme-3M is > 100 µM (inactive); in the assay on OVCAR-4, > 100 µM (inactive); with SK-MEL-2 it was > 100 µM (inactive); with HCT-15, greater than 100 µM; with IGROV-1, > 100 µM (inactive); with KM12 it was > 100 µM (inactive). The GI50 with U-251, in the assay on OVCAR-5, with HL-60, in the assay on HOP-62, in the assay on SK-MEL-5 and with HOP-92 was > 100 µM (inactive) each time. In addition, the GI50 in the assay with TK-10, with EKVX, in the assay on A549, in the assay on 786-0, in the assay with RXF 393 and in the assay on NCI-H460 was > 100 µM (inactive) in each case.

As for `CCOc1ccc2[nH]c3c(C)c4ccncc4c(C)c3c2c1`, the GI50 was 1.41 µM (inactive) in the assay on Malme-3M; 1.41 µM (inactive) with OVCAR-4; 1.19 µM (inactive) with SK-MEL-2; 0.448 µM with HCT-15; 1.16 µM (inactive) in the assay with IGROV-1; 1 µM (active) with KM12. The GI50 was 1 µM (active) in the assay with U-251; 1.58 µM (inactive) in the assay with OVCAR-5; 1.2 µM (inactive) with HL-60; 1.08 µM (active) in the assay on HOP-62; 1.51 µM (inactive) in the assay on SK-MEL-5; 1.45 µM (inactive) in the assay with HOP-92. In addition, the GI50 in the assay on TK-10 is 2.12 µM (inactive); in the assay with EKVX it was 1.46 µM (inactive); in the assay on A549, 1.45 µM (inactive); in the assay on 786-0 it was 1.03 µM (active); in the assay with RXF 393, 1.54 µM (inactive); in the assay on NCI-H460 it was 0.451 µM (active).

These data come from ChEMBL document CHEMBL1201862, “PubChem BioAssay data set” (2004).
